Test results from article PMC12186697, “HypoxyStat, a small-molecule form of hypoxia therapy that increases oxygen-hemoglobin affinity” (Cell, 2025).

Tests used:
[1] = test system: Ndufs4 KO mouse; assay: Ndufs4 KO mouse model of Leigh syndrome (survival, body weight, temperature, behavior, neuropathology); assay type: in vivo
Excerpt: We continuously bred Ndufs4 Het x Het mice to generate KO and controls for our experiments. Ndufs4+/− and WT mice were used as controls as they are identical in all previously reported assays. Ndufs4 mice were obtained directly from Jackson labs (#027058). Pups were weaned and genotyped at ~21 d after birth. The age of mice at the time of experiments is described throughout the text. Male and female mice were used throughout studies. All cages were provided with food and water, with hydrated gel provided to newly weaned cages. Body weights were recorded at every dosing. Mice were euthanized according to guidelines at 20% drop in peak body weight. All animal studies were approved by the Institutional Animal Care & Use Committee (IACUC) Program at UCSF/Gladstone.
(§1) Mice were administered HypoxyStat at 600 mg/kg every other day or 400mg/kg daily via oral gavage. For the disease prevention experiments, KO mice that underwent daily dosing were dosed starting ~P30 for 1 week of 200mg/kg daily, followed by 400mg/kg daily to allow for gradual dose escalation. For the reversal study, KO mice were dosed once with 200mg/kg on postnatal day ~P55, followed by 400mg/kg daily. HypoxyStat was formulated as a suspension at 60 mg/mL, 40mg/ml or 80mg/ml depending on dose in 0.5%HPMC and stored at 4 °C. The formulation was determined to be stable for at least 8 weeks. Animal body weight was taken at time of dosing to determine appropriate dosing volume (10 mL/kg for every other day dosing, 5ml/kg for daily dosing). Vehicle treated mice were administered the same volume of 0.5% HPMC.
Mice were euthanized via CO2 inhalation. To perfuse the whole body, the right atrium was nicked and a needle was inserted into the left ventricle. Ice-cold PBS was slowly injected first, followed immediately by 4% PFA solution. The brain was removed, stored in 4% PFA for 24–48 h, and then washed with PBS for 5 min (3 times). The brains were placed in 70% ethanol followed by paraffin embedding. For paraffin sections, brains were sagittally sectioned at 5 μm thickness. Prior to staining, sections were deparaffinized. Antigen retrieval was performed by heating the slides to boiling temperature in 10 mM sodium citrate solution (pH 6) in a microwave, followed by heating for 10 minutes. The sections were rinsed 3 times for 5 minutes each with PBS. They were then incubated in a blocking solution containing 5% donkey serum (DS) in PBS-Tx (PBS with 0.2% Triton X-100) for 60 minutes at room temperature. After blocking, sections were incubated overnight at 4C with the primary antibody IBA1 (Genetex GTX100042, 1:250) and NeuN (Sigma, MAB377, 1:500). Afterward, the sections were rinsed 3 times for 5 minutes with PBS-Tx. Next, they were incubated with a fluorophore-conjugated secondary antibodies (Invitrogen, A21206 or A31570) for 1 hour at room temperature. Following secondary antibody incubation, the sections were rinsed 3 times for 5 minutes with PBS-Tx, and then once for 5 minutes with PBS. Histology was quantified using either the percentage of Iba1+ positive signal or blinded scoring (on the scale of 1–5).
The open field instrument (San Diego Instruments) was used to measure spontaneous locomotor activity. Mice were placed in open field chambers and allowed to acclimate for 5 min before movement tracking for 20min. Spontaneous locomotor activity was measured based on beam breaks and recorded by the instrument. Age of measurements is +/− 5 days for practical purposes without any age bias between groups.

[2] = test system: Hb; assay: Hb occupancy estimate from blood levels of compound and Hb; assay type: in vivo; settings: day 12, C57BL/6 mice
Protocol: We conducted a PK/PD study to determine the optimal dosing strategy for HypoxyStat in a chronic setting. First we administered a single 10 mg/kg oral dose of HypoxyStat to adult C57BL/6 mice and monitored its concentration in blood and plasma over a 10-day period (Figure 3A, left). Next, we administered HypoxyStat at doses of 20, 60, 200, and 600 mg/kg via oral gavage three times per week for 12 days. […] Based on blood levels of HypoxyStat and Hb measured on day 12, we estimated Hb occupancy to be 29.3% at 200 mg/kg and 41.4% at 600 mg/kg (Figure S1).[27]
Figure S1. Hemoglobin occupancy estimates, related to Figure 1
LC/MS/MS measurement of steady-state whole-blood HypoxyStat concentrations after day 12 administration in C57BL/6 mice (200 or 600 mg/kg PO, […]
week in 0.5% HPMC), N = 10 per group.
(A) Oral administration of HypoxyStat every other day (vehicle = 0.5% HPMC).
(B) LC/MS/MS measurement of steady-state mean whole-blood HypoxyStat concentrations after day 12 administration in C57BL/6 mice.
(C) Hb concentration after analogous treatment.
(D) Hb occupancy was calculated by dividing the HypoxyStat concentration in blood by the Hb concentration in blood on day 12.

[3] = Stability of dosing suspension; assay type: physicochemical; settings: suspension in 0.5% HPMC, stored at 4 °C
Protocol: as §1

Question: Which “lifespan increase of Ndufs4 KO mice” value ([1]; 400 mg/kg daily oral gavage from P30 (1 week at 200 mg/kg)) does the source give for `O=Cc1ccccc1C(=O)N1CCCC[C@H]1COc1cccc(O)c1C=O` [HypoxyStat] here?
Answer: 3–4 ×

Question: What about the “tolerability of chronic dosing in control (WT or heterozygous) mice” value ([1]; 600 mg/kg every other day or 400 mg/kg daily, all control mice survived) of the same compound?
Answer: well tolerated

Question: What about the “lifespan increase of Ndufs4 KO mice” value ([1]; 600 mg/kg every other day oral gavage from P30) of the same compound?
Answer: 1.5–2 ×

Question: And the “body temperature of Ndufs4 KO mice” value ([1]; HypoxyStat from P30)?
Answer: restored body temperature to normal levels

Question: And the “motor coordination (rotarod) and spontaneous activity (open field) of KO mice” value ([1]; HypoxyStat from P30)?
Answer: significantly improved motor coordination and spontaneous activity

Question: And the “body weight of drug-treated KO mice” value ([1]; HypoxyStat from P30, comparable with inhaled hypoxia)?
Answer: increased body weight

Question: And the “lesion severity (Iba1 staining for microglial activation) at P50” value ([1]; KO mice treated from P30, p < 0.05 vs vehicle)?
Answer: significant reduction in lesion severity

Question: What about the Hb occupancy ([2]; 200 mg/kg PO 3 times per week) of the same compound?
Answer: 29.3%

Question: What about the Hb occupancy ([2]; 600 mg/kg PO 3 times per week) of the same compound?
Answer: 41.4%

Question: What about the stability of formulation [3] of the same compound?
Answer: at least 8 weeks
